Consider eleven compounds from patent publication US12509466B2, “Methods and compounds for treating paramyxoviridae virus infections” (Gilead Sciences, Inc., priority 2010, dated 2025).

Like-named read-outs stand apart in the source and are kept apart here.

Series [1] relates to Parainfluenza 3 strain C 243. The series is described as follows: Parainfluenza cytoprotection assay in Vero cells. In kind it is cell-based. As to conditions: 168 h, Parainfluenza 3 strain C 243, 7 days, MTS. How it is done:
(§1) The Parainfluenza Cytoprotection assay uses Vero cells and Parainfluenza 3 strain C 243. Briefly virus and cells are mixed in the presence of test compound and incubated for 7 days. […] Therefore, antiviral effect or cytoprotection is observed when compounds prevent virus replication. Each assay plate contains cell control wells (cells only), virus control wells (cells plus virus), compound toxicity control wells (cells plus compound only), compound colorimetric control wells (compound only), as well as experimental wells (compound plus cells plus virus). Cytoprotection and compound cytotoxicity are assessed by MTS (CellTiter®96 Reagent, Promega, Madison WI) dye reduction. […]
The virus used for this assay is Parainfluenza 3 strain C 243. […] The virus is resuspended and diluted into tissue culture medium such that the amount of virus added to each well is the amount determined to give between 85 to 95% cell killing at 6-7 days post-infection.
At assay termination (7 days post-infection), the assay plates are stained with the soluble tetrazolium-based dye MTS (3-(4,5-dimethylthiazol-2-yl)-5-(3-carboxymethoxyphenyl)-2-(4-sulfophenyl)-2H-tetrazolium; CellTiter®96 Reagent, Promega) to determine cell viability and quantify compound toxicity. […]

The test system of another series is RSV strain A2. In words: Anti-RSV cytoprotection assay in Hep2 cells. As to conditions: human respiratory syncytial virus, HEp-2, 96 h. The series is classed as cell-based. How it is done:
Antiviral activity against RSV is determined using an in vitro cytoprotection assay in Hep2 cells. […] The method used is similar to methods previously described in published literature (Chapman et al., Antimicrob Agents Chemother. 2007, 51(9):3346-53.)
Hep2 cells are obtained from ATCC (Manassas, VI) and maintained in MEM media supplemented with 10% fetal bovine serum and penicillin/streptomycin. Cells are passaged twice a week and kept at subconfluent stage. Commercial stock of RSV strain A2 (Advanced Biotechnologies, Columbia, MD) is titered before compound testing to determine the appropriate dilution of the virus stock that generates desirable cytopathic effect in Hep2 cells.
For antiviral tests, Hep2 cells are seeded into 96-well plates 24 hours before the assay at a density of 3,000 cells/well. On a separate 96 well plate, compounds to be tested are serially diluted in cell culture media. Eight concentrations in 3-fold serial dilution increments are prepared for each tested compound and 100 uL/well of each dilution is transferred in duplicate onto plates with seeded Hep2 cells. Subsequently, appropriate dilution of virus stock previously determined by titration is prepared in cell culture media and 100 uL/well is added to test plates containing cells and serially diluted compounds. Each plate includes three wells of infected untreated cells and three wells of uninfected cells that served as 0% and 100% virus inhibition control, respectively. Following the infection with RSV, testing plates are incubated for 4 days in a tissue culture incubator. After the incubation, RSV-induced cytopathic effect is determined using a Cell TiterGlo reagent (Promega, Madison, WI) followed by a luminescence read-out. The percentage inhibition is calculated for each tested concentration relative to the 0% and 100% inhibition controls and the EC50 value for each compound is determined by non-linear regression as a concentration inhibiting the RSV-induced cytopathic effect by 50%. Ribavirin (purchased from Sigma, St. Louis, MO) is used as a positive control for antiviral activity.

Series [2] in a line: Cytotoxicity in uninfected Hep2 cells. The following applies: human, CellTiter Glo. In kind it is cell-based. The method, then: Cytotoxicity of tested compounds is determined in uninfected Hep2 cells in parallel with the antiviral activity using the cell viability reagent in a similar fashion as described before for other cell types (Cihlar et al., Antimicrob Agents Chemother. 2008, 52(2):655-65.). The same protocol as for the determination of antiviral activity is used for the measurement of compound cytotoxicity except that the cells are not infected with RSV. Instead, fresh cell culture media (100 uL/well) without the virus is added to tested plates with cells and prediluted compounds. Cells are then incubated for 4 days followed by a cell viability test using CellTiter Glo reagent and a luminescence read-out. Untreated cell and cells treated with 50 ug/mL puromycin (Sigma, St. Louis, MO) are used as 100% and 0% cell viability control, respectively. The percent of cell viability is calculated for each tested compound concentration relative to the 0% and 100% controls and the CC50 value is determined by non-linear regression as a compound concentration reducing the cell viability by 50%.
Background: Cellular ATP, detected with luciferase, serves as a proxy for viable cell number.

Series [3] can be described thus: Compound cytotoxicity in Vero cells (MTS). As to conditions: African green monkey (Cercopithecus aethiops), concentration resulting in 50% cell death, read-out: TC50. In kind it is cell-based. The method, then:
as §1
At assay termination (7 days post-infection), the assay plates are stained with the soluble tetrazolium-based dye MTS (3-(4,5-dimethylthiazol-2-yl)-5-(3-carboxymethoxyphenyl)-2-(4-sulfophenyl)-2H-tetrazolium; CellTiter®96 Reagent, Promega) to determine cell viability and quantify compound toxicity. MTS is metabolized by the mitochondrial enzymes of metabolically active cells to yield a soluble formazan product, allowing the rapid quantitative analysis of cell viability and compound cytotoxicity. […]

For series [4], the target named is T1, RSV ribonucleoprotein (RNP) complexes (Human respiratory syncytial virus A, UniProt P28887).
T1 construct: The supernatant (S3) fraction, containing the enriched RSV RNP complexes, was collected; endogenous in cells; host or cells: HEp-2 cells infected with RSV A2; crude detergent-extracted S3 fraction
T1 sequence (P28887 whole entry, looked up, one chain of several): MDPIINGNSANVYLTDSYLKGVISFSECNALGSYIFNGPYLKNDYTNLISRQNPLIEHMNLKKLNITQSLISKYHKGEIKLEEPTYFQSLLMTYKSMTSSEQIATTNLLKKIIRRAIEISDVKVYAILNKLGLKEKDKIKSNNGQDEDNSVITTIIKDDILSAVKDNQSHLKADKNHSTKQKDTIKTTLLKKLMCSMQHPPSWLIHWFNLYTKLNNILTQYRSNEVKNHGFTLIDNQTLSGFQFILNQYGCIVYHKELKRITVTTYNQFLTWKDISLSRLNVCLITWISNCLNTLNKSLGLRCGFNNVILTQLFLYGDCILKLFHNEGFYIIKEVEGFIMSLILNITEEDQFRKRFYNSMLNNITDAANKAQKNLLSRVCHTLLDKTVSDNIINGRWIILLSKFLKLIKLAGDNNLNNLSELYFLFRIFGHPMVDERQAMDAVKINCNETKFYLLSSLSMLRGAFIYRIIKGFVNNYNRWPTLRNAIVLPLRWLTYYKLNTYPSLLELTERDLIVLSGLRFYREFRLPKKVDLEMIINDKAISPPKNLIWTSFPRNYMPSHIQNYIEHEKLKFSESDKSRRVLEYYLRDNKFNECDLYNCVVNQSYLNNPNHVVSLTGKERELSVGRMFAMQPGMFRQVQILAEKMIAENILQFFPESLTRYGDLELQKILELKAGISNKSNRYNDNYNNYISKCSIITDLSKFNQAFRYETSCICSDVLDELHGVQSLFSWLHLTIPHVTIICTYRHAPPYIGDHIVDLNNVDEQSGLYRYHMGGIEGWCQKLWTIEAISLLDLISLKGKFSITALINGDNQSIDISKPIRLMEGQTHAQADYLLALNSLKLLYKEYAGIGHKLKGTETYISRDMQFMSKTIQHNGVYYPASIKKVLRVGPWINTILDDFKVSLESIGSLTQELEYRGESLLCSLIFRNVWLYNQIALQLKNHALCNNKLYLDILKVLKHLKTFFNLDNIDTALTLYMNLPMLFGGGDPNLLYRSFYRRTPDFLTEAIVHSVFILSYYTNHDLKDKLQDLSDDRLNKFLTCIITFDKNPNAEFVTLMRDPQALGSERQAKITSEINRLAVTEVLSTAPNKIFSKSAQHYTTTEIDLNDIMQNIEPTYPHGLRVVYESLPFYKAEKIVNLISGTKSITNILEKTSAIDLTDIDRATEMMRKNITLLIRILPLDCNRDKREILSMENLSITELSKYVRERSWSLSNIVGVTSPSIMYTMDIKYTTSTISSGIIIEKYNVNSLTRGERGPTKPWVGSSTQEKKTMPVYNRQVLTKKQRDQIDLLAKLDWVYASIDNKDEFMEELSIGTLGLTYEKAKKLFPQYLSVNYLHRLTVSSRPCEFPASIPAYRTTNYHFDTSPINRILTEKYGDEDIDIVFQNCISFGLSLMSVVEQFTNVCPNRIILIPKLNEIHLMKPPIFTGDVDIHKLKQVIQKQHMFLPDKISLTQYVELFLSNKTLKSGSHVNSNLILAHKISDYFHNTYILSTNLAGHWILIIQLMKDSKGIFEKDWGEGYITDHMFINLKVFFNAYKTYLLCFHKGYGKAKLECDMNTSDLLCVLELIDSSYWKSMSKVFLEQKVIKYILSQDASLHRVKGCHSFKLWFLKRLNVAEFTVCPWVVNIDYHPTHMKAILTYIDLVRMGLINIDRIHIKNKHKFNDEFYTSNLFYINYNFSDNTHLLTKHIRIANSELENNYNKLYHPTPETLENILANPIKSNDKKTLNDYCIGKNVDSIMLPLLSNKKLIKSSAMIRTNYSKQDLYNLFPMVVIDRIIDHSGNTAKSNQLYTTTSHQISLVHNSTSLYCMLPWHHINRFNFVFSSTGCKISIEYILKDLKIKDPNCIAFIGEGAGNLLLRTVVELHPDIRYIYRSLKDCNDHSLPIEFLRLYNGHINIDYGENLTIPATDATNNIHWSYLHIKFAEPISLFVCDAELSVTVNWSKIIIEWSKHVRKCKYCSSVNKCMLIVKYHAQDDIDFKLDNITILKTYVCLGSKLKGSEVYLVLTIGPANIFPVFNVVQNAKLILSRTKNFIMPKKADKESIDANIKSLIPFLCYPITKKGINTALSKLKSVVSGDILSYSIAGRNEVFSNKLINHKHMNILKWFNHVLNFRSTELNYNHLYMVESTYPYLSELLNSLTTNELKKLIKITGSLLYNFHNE
The series is described as follows: RSV RNP transcription assay. In kind it is biochemical, RSV A2. The following applies: reduction of total radiolabled transcripts by 50%, 90 minute incubation at 30° C.
Protocol: HEp-2 cells were plated at a density of 7.1×10^4 cells/cm^2 in MEM+10% fetal bovine serum (FBS) and allowed to attach overnight at 37° C. (5% CO2). Following attachment, the cells were infected with RSV A2 (MOI=5) in 35 mL MEM+2% FBS. At 20 hours post-infection, the media was replaced with MEM+2% FBS supplemented with 2 μg/mL actinomycin D and returned to 37° C. for one hour. The cells were then washed once with PBS and treated with 35 mL of PBS+250 μg/mL lyso-lecithin for one minute, after which all liquid was aspirated. The cells were harvested by scrapping them into 1.2 mL of buffer A [50 mM TRIS acetate (pH 8.0), 100 mM potassium acetate, 1 mM DTT and 2 μg/mL actinomycin D] and lysed by repeated passage through an 18 gauge needle (10 times). The cell lysate was placed in ice for 10 minutes and then centrifuged at 2400 g for 10 minutes at 4° C. The supernatant (S1) was removed and the pellet (P1) was disrupted in 600 uL of Buffer B [10 mM TRIS acetate (pH 8.0), 10 mM potassium acetate and 1.5 mM MgCl2] supplemented with 1% Triton X-100 by repeated passage through an 18 gauge needle (10 times). The resuspended pellet was placed in ice for 10 minutes and then centrifuged at 2400 g for 10 minutes at 4° C. The supernatant (S2) was removed and the pellet (P2) was disrupted in 600 uL of Buffer B supplemented with 0.5% deoxycholate and 0.1% Tween 40. The resuspended pellet was placed in ice for 10 minutes and then centrifuged at 2400 g for 10 minutes at 4° C. The supernatant (S3) fraction, containing the enriched RSV RNP complexes, was collected and the protein concentration determined by UV absorbance at 280 nm. Aliquoted RSV RNP S3 fractions were stored at −80° C.
Transcription reactions contained 25 μg of crude RSV RNP complexes in 30 μL of reaction buffer [50 mM TRIS-acetate (pH 8.0), 120 mM potassium acetate, 5% glycerol, 4.5 mM MgCl2, 3 mM DTT, 2 mM ethyleneglycol-bis(2-aminoethylether)-tetraacetic acid (EGTA), 50 μg/mL BSA, 2.5 U RNasin (Promega), ATP, GTP, UTP, CTP and 1.5 uCi [α-^32P] NTP (3000 Ci/mmol)]. The radiolabled nucleotide used in the transcription assay was selected to match the nucleotide analog being evaluated for inhibition of RSV RNP transcription. […] The three remaining nucleotides were added at a final concentration of 100 μM.
To determine whether nucleotide analogs inhibited RSV RNP transcription, compounds were added using a 6 step serial dilution in 5-fold increments. Following a 90 minute incubation at 30° C., the RNP reactions were stopped with 350 μL of Qiagen RLT lysis buffer and the RNA was purified using a Qiagen RNeasy 96 kit. Purified RNA was denatured in RNA sample loading buffer (Sigma) at 65° C. for 10 minutes and run on a 1.2% agarose/MOPS gel containing 2M formaldehyde. […]

Setting [5] is: RSV-induced cytopathic effect, Hep2 cells, RSV strain A2, 4 days, Cell TiterGlo, read-out: EC50.

For `N#C[C@@]1(c2ccc3c(N)ncnn23)O[C@H](CO)[C@@H](O)[C@H]1O` [Compound 1, (2R, 3R, 4S, 5R)-2-(4-aminopyrrolo[1,2-f][1,2,4]triazin-7-yl)-3,4-dihydroxy (hydroxymethyl)tetrahydrofuran-2-carbonitrile], half-maximal inhibition in series [1] (IC50) required 1.71 µM. Moreover, the EC50 (usually the concentration at which the effect is half-maximal) in the series on RSV strain A2 (setting [5]) worked out at 0.48 µM. In series [2], this compound had a CC50 at 4 days greater than 100 µM. Further, the CC50 at 7 days in series [3] was greater than 30 µM.

For `C[C@@]1(c2ccc3c(N)ncnn23)O[C@H](COP(=O)(O)OP(=O)(O)OP(=O)(O)O)[C@@H](O)[C@H]1F` [Compound 6, ((2R, 3R, 4R, 5S)-5-(4-aminopyrrolo[1,2-f][1,2,4]triazin-7-yl)-4-fluoro-3-hydroxy-5-methyltetrahydrofuran-2-yl)methyl Tetrahydrogen Triphosphate], half-maximal inhibition in series [4] (IC50) required 3.6 µM.

`CCOC(=O)[C@H](C)NP(=O)(OC[C@H]1O[C@@](C#N)(c2ccc3c(N)ncnn23)[C@H](O)[C@@H]1O)Oc1ccccc1` (stereo partly drawn) [Compound 10, (2S)-ethyl 2-((((2R,3S,4R,5R)-5-(4-aminopyrrolo[1,2-f][1,2,4]triazin-7-yl)cyano-3,4-dihydroxytetrahydrofuranyl)methoxy)(phenoxy)phosphorylamino)propanoate]: in the series on RSV strain A2, the concentration for a half-maximal effect (EC50) turned out to be 0.18 µM. This compound also gave a CC50 at 4 days in series [2] of 47 µM.

As to `CCOC(=O)[C@H](C)NP(=O)(N[C@@H](C)C(=O)OCC)OC[C@H]1O[C@@](C#N)(c2ccc3c(N)ncnn23)[C@H](O)[C@@H]1O` [Compound 12, (2S,2'S)-diethyl 2,2′-((((2R,3S,4R,5R)-5-(4-aminopyrrolo[1,2-f][1,2,4]triazinyl)-5-cyano-3,4-dihydroxytetrahydrofuranyl)methoxy)phosphoryl)bis(azanediyl)dipropanoate], the EC50 with RSV strain A2 (setting [5]) came out at 6.5 µM. The same compound registered a CC50 at 4 days in series [2] greater than 100 µM.

Consider `C#C[C@@]1(c2ccc3c(N)ncnn23)O[C@H](CO)[C@@H](O)[C@H]1O` [Compound 13, (2S,3R,4S,5R)-2-(4-aminopyrrolo[1,2-f][1,2,4]triazin-7-yl)-2-ethynyl (hydroxymethyl)tetrahydrofuran-3,4-diol], for which, in the series on RSV strain A2 (setting [5]), the half-maximal effective concentration (EC50) was determined as 34 µM. Further, the CC50 at 4 days in series [2] was greater than 100 µM.

On to `C[C@@]1(c2ccc3c(N)ncnn23)O[C@H](CO)[C@@H](O)[C@H]1O` [Compound 14], for which, in series [1], the 50% inhibitory concentration (IC50) (in general, the midpoint of a concentration-inhibition curve) came out at 5.23 µM. Moreover, the EC50 with RSV strain A2 (setting [5]) is 2.7 µM. The compound further displayed a CC50 at 4 days in series [2] of 92 µM. Moreover, in series [3], the CC50 at 7 days is greater than 30 µM.

As to `CC(C)(C)C(=O)SCCOP(=O)(OCCSC(=O)C(C)(C)C)OC[C@H]1O[C@@](C#N)(c2ccc3c(N)ncnn23)[C@H](O)[C@@H]1O` [Compound 15, S,S′-2,2′-((((2R,3S,4R,5R)-5-(4-aminopyrrolo[1,2-f][1,2,4]triazin-7-yl)-5-cyano-3,4-dihydroxytetrahydrofuran-2-yl)methoxy)phosphoryl)bis(oxy)bis(ethane-2,1-diyl) bis(2,2-dimethylpropanethioate)], the EC50 in the series with RSV strain A2 (setting [5]) was 0.15 µM. This compound showed a CC50 at 4 days in series [2] greater than 100 µM.

Consider `C#C[C@@]1(c2ccc3c(N)ncnn23)O[C@H](COP(=O)(OCCSC(=O)C(C)(C)C)OCCSC(=O)C(C)(C)C)[C@@H](O)[C@H]1O` [Compound 16, S,S′-2,2′-((((2R, 3S, 4R, 5S)-5-(4-aminopyrrolo[1,2-f][1,2,4]triazin-7-yl)-5-ethynyl-3,4-dihydroxytetrahydrofuran-2-yl)methoxy)phosphoryl)bis(oxy)bis(ethane-2,1-diyl) bis(2,2-dimethylpropanethioate)], for which the EC50 in the series with RSV strain A2 was 3.3 µM. The compound also registered a CC50 at 4 days in series [2] greater than 100 µM.

`C#C[C@@]1(c2ccc3c(N)ncnn23)O[C@H](COP(=O)(O)OP(=O)(O)OP(=O)(O)O)[C@@H](O)[C@H]1O` [Compound 18, ((2R, 3S, 4R, 5S)-5-(4-aminopyrrolo[1,2-f][1,2,4]triazin-7-yl)-5-ethynyl-3,4-dihydroxytetrahydrofuran-2-yl)methyl tetrahydrogen triphosphate]: the 50% inhibitory concentration (IC50) in series [4] amounted to 1.6 µM.

Compound `C[C@@]1(c2ccc3c(N)ncnn23)O[C@H](COP(=O)(O)OP(=O)(O)OP(=O)(O)O)[C@@H](O)[C@H]1O` [Compound 19, ((2R, 3S, 4R, 5S)-5-(4-aminopyrrolo[1,2-f][1,2,4]triazin-7-yl)-3,4-dihydroxymethyltetrahydrofuran-2-yl)methyl Tetrahydrogen Triphosphate] showed a half-inhibitory concentration (IC50) in series [4] of 1.5 µM.

Turning to `N#C[C@@]1(c2ccc3c(N)ncnn23)O[C@H](COP(=O)(O)OP(=O)(O)OP(=O)(O)O)[C@@H](O)[C@H]1F` [Compound 20, ((2R,3R,4R,5R)-5-(4-aminopyrrolo[1,2-f][1,2,4]triazin-7-yl)-5-cyano-4-fluoro-3-hydroxytetrahydrofuran-2-yl)methyl Tetrahydrogen Triphosphate], the concentration for half-maximal inhibition (IC50) in series [4] was determined as 0.8 µM.
